Drawing on PubChem BioAssay AID220 (DTP/NCI, 2004), this text covers T/C for 17 compounds.

The subject of this experiment is CD8F1 mice, subcutaneous mammary adenocarcinoma, T/C%. The experiment can be described thus: NCI In Vivo Anticancer Drug Screen. Data for tumor model Mammary Adenocarcinoma CD8F1 (subcutaneous) in CD8F1. The note with it: higher = larger tumour. An outline of the steps: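 Antitumor activity is assessed in transplantable-tumor mice by comparing the treated group with a vehicle-treated control group. Survival or tumor size serves as the measure, reported as T divided by C.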

[1] abbreviates: endpoint: median tumor weight change, dose: 125.0 mg/kg/injection, schedule: Q01DX001 (ip), vehicle: Klucel (hydroxypropylcellulose) (HPC).
[2] abbreviates: endpoint: median tumor weight change, dose: 250.0 mg/kg/injection, schedule: Q01DX001 (ip), vehicle: Klucel (hydroxypropylcellulose) (HPC).
[3] abbreviates: endpoint: median tumor weight change, dose: 500.0 mg/kg/injection, schedule: Q01DX001 (ip), vehicle: Klucel (hydroxypropylcellulose) (HPC).
The mark [4] stands for this setting: endpoint: median tumor weight change, dose: 125.0 mg/kg/injection, schedule: Q01DX001 (ip), vehicle: saline with Tween-80.
The mark [5] stands for this setting: endpoint: median tumor weight change, dose: 250.0 mg/kg/injection, schedule: Q01DX001 (ip), vehicle: saline with Tween-80.
Setting [6] is: endpoint: median tumor weight (est.), dose: 25.0 mg/kg/injection, schedule: Q07DX005 (ip), vehicle: Klucel (hydroxypropylcellulose) (HPC).
The mark [7] stands for this setting: endpoint: median tumor weight (est.), dose: 50.0 mg/kg/injection, schedule: Q07DX005 (ip), vehicle: Klucel (hydroxypropylcellulose) (HPC).
Where [8] appears, read: endpoint: median tumor weight (est.), dose: 100.0 mg/kg/injection, schedule: Q07DX005 (ip), vehicle: Klucel (hydroxypropylcellulose) (HPC).
Where [9] appears, read: endpoint: median tumor weight (est.), dose: 6.25 mg/kg/injection, schedule: Q07DX005 (ip), vehicle: saline.
[10] abbreviates: endpoint: median tumor weight (est.), dose: 12.5 mg/kg/injection, schedule: Q07DX005 (ip), vehicle: saline.
Where [11] appears, read: endpoint: median tumor weight (est.), dose: 25.0 mg/kg/injection, schedule: Q07DX005 (ip), vehicle: saline.
Setting [12] is: endpoint: median tumor weight (est.), dose: 50.0 mg/kg/injection, schedule: Q07DX005 (ip), vehicle: saline.
Where [13] appears, read: endpoint: median tumor weight (est.), dose: 100.0 mg/kg/injection, schedule: Q07DX005 (ip), vehicle: suspension in saline.

Values joined by “and” are separate entries in the source; they are usually repeats but may differ in a detail not shown here. Equal entries are not always repeated. Inconclusive results are not listed.

With `COC(=O)Nc1nc2ccc(SC)cc2c(=O)[nH]1`, the T/C is 79 % of control under setting [1], 61 % of control under setting [2] and 57 % of control under setting [3].
On to `CCOC(=O)c1[nH]c2cccc3c2c1CC(Br)C3=O` (stereo not given), for which the T/C is 86 % of control under setting [4] and 52 % of control under setting [5].
In the case of `O=C1C2(Cl)C3(Cl)C4(Cl)C(Cl)(Cl)C5(Cl)[C@]3(Cl)C1(Cl)[C@]5(Cl)C24Cl` (stereo not given in full), the T/C is, setting by setting: (endpoint: median tumor weight (est.), dose: 12.5 mg/kg/injection, schedule: Q07DX005 (ip), vehicle: Klucel (hydroxypropylcellulose) (HPC)) 71 % of control; under setting [6], 91 % of control; under setting [7], 67 % of control.
On to `CSc1ncc2ncn(C3OC(CO)C(O)C3O)c2n1` (stereo not given), for which the T/C is, setting by setting: under setting [2], 92 % of control; under setting [3], 110 % of control; (endpoint: median tumor weight change, dose: 1000.0 mg/kg/injection, schedule: Q01DX001 (ip), vehicle: Klucel (hydroxypropylcellulose) (HPC)) 57 % of control.
Take `Nc1nncs1`: the T/C was 72 % of control and 85 % of control under setting [6]; 44 % of control and 62 % of control under setting [7]; 34 % of control under setting [8]; 24 % of control and 49 % of control (endpoint: median tumor weight (est.), dose: 400.0 mg/kg/injection, schedule: Q07DX005 (ip), vehicle: Klucel (hydroxypropylcellulose) (HPC)).
Turning to `COc1cc2c(ccc3c4cc(OC)c(OC)cc4c[n+](C)c23)cc1O`, the T/C (endpoint: median tumor weight change, dose: 250.0 mg/kg/injection, schedule: Q01DX001 (ip), vehicle: saline) was 190 % of control; the T/C (endpoint: median tumor weight change, dose: 1000.0 mg/kg/injection, schedule: Q01DX001 (ip), vehicle: saline) was 89 % of control; the T/C (endpoint: median tumor weight change, dose: 2000.0 mg/kg/injection, schedule: Q01DX001 (ip), vehicle: saline) was 121 % of control.
`O=c1[nH]cnc2c1ccn2C1OC(CO)C(O)C1O` (stereo not given): the T/C is 74 % of control (endpoint: median tumor weight change, dose: 24.0 mg/kg/injection, schedule: Q01DX001 (ip), vehicle: saline) and 62 % of control (endpoint: median tumor weight change, dose: 48.0 mg/kg/injection, schedule: Q01DX001 (ip), vehicle: saline).
Regarding `CO[C@H](/C(C)=C/C=C/C(C)=C/c1coc(C)n1)[C@H](C)[C@H]1C[C@@H](O)[C@@]2(C)O[C@H]2/C=C/[C@@H](C)[C@@H]2C[C@@H](CC(=O)O2)C[C@H]2O[C@@H]2C(=O)O1`, the T/C runs as follows: (endpoint: median tumor weight change, dose: 0.06 mg/kg/injection, schedule: Q01DX001 (ip), vehicle: Klucel (hydroxypropylcellulose) (HPC)) 175 % of control; (endpoint: median tumor weight change, dose: 0.25 mg/kg/injection, schedule: Q01DX001 (ip), vehicle: Klucel (hydroxypropylcellulose) (HPC)) 83 % of control; (endpoint: median tumor weight change, dose: 0.5 mg/kg/injection, schedule: Q01DX001 (ip), vehicle: Klucel (hydroxypropylcellulose) (HPC)) 110 % of control; (endpoint: median tumor weight change, dose: 1.0 mg/kg/injection, schedule: Q01DX001 (ip), vehicle: Klucel (hydroxypropylcellulose) (HPC)) 101 % of control.
In the case of `CCN(CC)c1ccc2cc(-c3nc4ccccc4n3C)c(=O)oc2c1`, the T/C was 62 % of control and 84 % of control under setting [6]; 79 % of control under setting [7]; 35 % of control under setting [8]; 24 % of control (endpoint: median tumor weight (est.), dose: 200.0 mg/kg/injection, schedule: Q07DX005 (ip), vehicle: Klucel (hydroxypropylcellulose) (HPC)); 92 % of control under setting [1]; 80 % of control under setting [2]. The T/C under setting [3] is 37 % of control.
Turning to `C/C=C/C1=CC(=O)C(O)C1O` (stereo not given), the T/C was 122 % of control (endpoint: median tumor weight (est.), dose: 45.0 mg/kg/injection, schedule: Q07DX005 (ip), vehicle: water); 78 % of control (endpoint: median tumor weight (est.), dose: 90.0 mg/kg/injection, schedule: Q07DX005 (ip), vehicle: water); 107 % of control (endpoint: median tumor weight (est.), dose: 180.0 mg/kg/injection, schedule: Q07DX005 (ip), vehicle: water).
Regarding `CN1C(=O)CC2(CCN(CCCC(=O)c3ccc(F)cc3)CC2)C1=O`, the T/C under setting [9] was 112 % of control; the T/C (endpoint: median tumor weight (est.), dose: 6.25 mg/kg/injection, schedule: Q07DX005 (ip), vehicle: suspension in saline) is 52 % of control; the T/C under setting [10] was 62 % of control; the T/C (endpoint: median tumor weight (est.), dose: 12.5 mg/kg/injection, schedule: Q07DX005 (ip), vehicle: suspension in saline) was 108 % of control; the T/C under setting [11] is 170 % of control; the T/C under setting [12] is 117 % of control. Moreover, the T/C is, setting by setting: (endpoint: median tumor weight (est.), dose: 50.0 mg/kg/injection, schedule: Q07DX005 (ip), vehicle: suspension in saline) 258 % of control; under setting [13], 122 % of control.
On to `c1ccc([C@H]2CN3CCSC3=N2)cc1`, for which the T/C was 107 % of control (endpoint: mean tumor weight, dose: 12.5 mg/kg/injection, schedule: Q07DX005 (ip), vehicle: saline); 105 % of control (endpoint: mean tumor weight, dose: 25.0 mg/kg/injection, schedule: Q07DX005 (ip), vehicle: saline); 92 % of control under setting [10].
Take `CC(=O)N(C)O`: the T/C runs as follows: under setting [4], 80 % of control; under setting [5], 63 % of control; (endpoint: median tumor weight change, dose: 500.0 mg/kg/injection, schedule: Q01DX001 (ip), vehicle: saline with Tween-80) 50 % of control.
With `COc1cc2cc3c4cc(OC)c(OC)cc4cc[n+]3c(C)c2cc1OC` (tested in a mixture with another compound), the T/C under setting [13] was 97 % of control.
Regarding `COC12C(COC(N)=O)C3=C(C(=O)C(C)=C(N)C3=O)N1CC1C2N1C` (stereo not given), the T/C is, setting by setting: (endpoint: median tumor weight (est.), dose: 2.0 mg/kg/injection, schedule: Q07DX005 (ip), vehicle: suspension in saline) 53 % of control; (endpoint: median tumor weight (est.), dose: 4.0 mg/kg/injection, schedule: Q07DX005 (ip), vehicle: suspension in saline) 73 % of control; (endpoint: median tumor weight (est.), dose: 8.0 mg/kg/injection, schedule: Q07DX005 (ip), vehicle: suspension in saline) 3 % of control.
In the case of `CC(=O)c1c(O)c(C)c(O)c2c1OC1=CC(=O)C(C(C)=O)C(=O)C12C` (stereo not given), the T/C by setting is: (endpoint: median tumor weight (est.), dose: 12.5 mg/kg/injection, schedule: Q07DX004 (ip), vehicle: gum acacia) 44 % of control; (endpoint: median tumor weight (est.), dose: 12.5 mg/kg/injection, schedule: Q07DX005 (ip), vehicle: gum acacia) 95 % of control; (endpoint: median tumor weight (est.), dose: 25.0 mg/kg/injection, schedule: Q07DX004 (ip), vehicle: gum acacia) 78 % of control; (endpoint: median tumor weight (est.), dose: 25.0 mg/kg/injection, schedule: Q07DX005 (ip), vehicle: gum acacia) 120 % of control; (endpoint: median tumor weight (est.), dose: 50.0 mg/kg/injection, schedule: Q04DX005 (ip), vehicle: gum acacia) 79 % of control and 97 % of control; (endpoint: median tumor weight (est.), dose: 50.0 mg/kg/injection, schedule: Q07DX004 (ip), vehicle: gum acacia) 85 % of control. The T/C by setting is: (endpoint: median tumor weight (est.), dose: 50.0 mg/kg/injection, schedule: Q07DX005 (ip), vehicle: gum acacia) 85 % of control; (endpoint: median tumor weight (est.), dose: 100.0 mg/kg/injection, schedule: Q07DX004 (ip), vehicle: gum acacia) 114 % of control; (endpoint: median tumor weight (est.), dose: 100.0 mg/kg/injection, schedule: Q07DX005 (ip), vehicle: gum acacia) 74 % of control; (endpoint: median tumor weight (est.), dose: 200.0 mg/kg/injection, schedule: Q07DX005 (ip), vehicle: gum acacia) 102 % of control; (endpoint: median tumor weight (est.), dose: 400.0 mg/kg/injection, schedule: Q04DX005 (ip), vehicle: gum acacia) 97 % of control; (endpoint: median tumor weight (est.), dose: 400.0 mg/kg/injection, schedule: Q07DX004 (ip), vehicle: gum acacia) 42 % of control. Moreover, for the setting “endpoint: median tumor weight (est.), dose: 400.0 mg/kg/injection, schedule: Q07DX005 (ip), vehicle: gum acacia”, the T/C was 96 % of control.
In the case of `C1CN2CN3CCN(CN1C3)C2`, the T/C (endpoint: mean tumor weight, dose: 12.5 mg/kg/injection, schedule: Q07DX006 (ip), vehicle: saline) was 85 % of control; the T/C (endpoint: mean tumor weight, dose: 25.0 mg/kg/injection, schedule: Q07DX006 (ip), vehicle: saline) is 104 % of control; the T/C (endpoint: mean tumor weight, dose: 50.0 mg/kg/injection, schedule: Q07DX006 (ip), vehicle: saline) was 79 % of control; the T/C (endpoint: mean tumor weight, dose: 100.0 mg/kg/injection, schedule: Q07DX006 (ip), vehicle: saline) is 26 % of control; the T/C under setting [9] was 75 % of control; the T/C under setting [10] is 107 % of control. In addition, the T/C was 93 % of control under setting [11]; 82 % of control under setting [12]; 107 % of control (endpoint: median tumor weight (est.), dose: 100.0 mg/kg/injection, schedule: Q07DX005 (ip), vehicle: saline); 67 % of control (endpoint: median tumor weight (est.), dose: 200.0 mg/kg/injection, schedule: Q07DX005 (ip), vehicle: saline).
